For assay [1], the system named is TGF-β1-induced MRC-5 cells. Nature of the assay: Western blot of p-Smad-2. Format: cell-based, human. To be noted: 10 µM, 1 h pre-incubation, TGF-β1 5 ng/mL 1 h. On the procedure: Western Blot analysis was performed according to a standard protocol. Briefly, MRC-5 cells were pre-incubated with the study compounds (10 µM) for 1 h, […] (RIPA Lysis and Extraction Buffer, Thermo Fisher Scientific, Waltham, MA, USA) and supplemented with protease inhibitor cocktail and phosphatase inhibitor cocktail (both from Sigma Aldrich, St. Louis, MO, USA). Equal amounts of protein (30 µg) were separated using 10% SDS-polyacrylamide gels and transferred onto polyvinylidene difluoride (PVDF) membranes (Thermo Fisher Scientific, Waltham, MA, USA). Then membranes were washed with Tris Buffered Saline with Tween 20 (TBST) buffer (150 mM NaCl, 50 mM Tris, 0.05% Tween 20), blocked with 5% skim milk in TBST and incubated overnight with the appropriate primary antibody: rabbit, polyclonal anti-SMAD2 antibody, dilution 1:250, #51-1300 and rabbit, polyclonal anti-phospho-SMAD2 (Ser465, Ser467) antibody, dilution 1:500, #44-244G (both from Thermo Fisher Scientific, Waltham, MA, USA); rabbit, polyclonal anti-CREB1 antibody, dilution 1:500, #orb213777 and rabbit, polyclonal anti-phospho-CREB1 (Ser133) antibody, dilution 1:500, #orb213775 (both from Biorbyt LLC, San Francisco, CA, USA); mouse monoclonal anti-GAPDH antibody, dilution 1:5000, #G8795 (Sigma Aldrich, St. Louis, MO, USA). The next day, after gentle rising, membranes were exposed to secondary, rabbit anti-mouse IgG (whole molecule) peroxidase antibody (#A9044, dilution 1:3000, Sigma Aldrich, St. Louis, MO, USA) and goat anti-rabbit IgG (H+L) peroxidase-conjugated antibody (#32460, dilution 1:3000, Thermo Fisher Scientific, Waltham, MA, USA). Blots were visualized using a chemiluminescence method (Clarity Max™ Western ECL Substrate—Peroxide Solution, BioRad, Hercules, CA, USA) with a C-DiGit® Blot Scanner (LI-COR Biosciences, Lincoln, NE, USA). ROD was measured according to the NIH guidelines with Fiji ImageJ Software. The experiments were run four times.
For orientation: Immunoblotting shows a protein as a band on a membrane.

Assay [2] relates to TGF-β1-induced MRC-5 cells. Nature of the assay: Protein kinase A activity. Conditions: 10 µM 30 min, then TGF-β1 30 min. Format: cell-based, human. On the procedure:
Protein Kinase A (PKA) activity in MRC-5 cells was determined using a PKA Colorimetric Activity Kit (Invitrogen, Carlsbad, CA, USA) according to the manufacturer’s protocol. MRC-5 cells were seeded in standard culture medium, and after 48 h they were serum-starved for 2 h in HBSS, followed by the addition of study compounds (10 µM) and incubation for 30 min. Finally, TGF-β1 was administered, and the samples were incubated for an additional 30 min. Whole cell lysates were used in the assay. The amount of PKA was normalized to the total protein content in each sample. The experiments were run two times in duplicates.

For the next assay, the system named is MRC-5 cells. Kind of assay: Intracellular calcium measurements (Fluo-4). Format: cell-based, human. On the procedure: MRC-5 cells were briefly washed with NaHEPES buffer (NaHEPES buffer was prepared as follows: NaCl 140 mM, KCl 4.7 mM, HEPES 10 mM, MgCl2 1 mM, glucose 10 mM; pH 7.3) and then loaded with 1 µM Fluo-4 AM (Thermo Fisher Scientific, Waltham, MA, USA) for 1 h, 37 °C in NaHEPES. After the incubation, the cells were washed again with fresh NaHEPES and used for experiments in a flow chamber perfused with NaHEPES-based extracellular solution supplemented with 1 mM CaCl2. All experiments were carried out at room temperature using Zeiss LSM 880 confocal microscope (40× oil objective), excitation was set to 488 nm, and the emission was between 500 and 600 nm. Each series of images was recorded at 256 × 256-pixel resolution, two consecutive frames were averaged, and the interval between the averaged images was set at 2 s. Fluorescence signals were plotted as F/F0, where F0 was baseline fluorescence defined as the averaged signal from ten consecutive baseline images.

The target in a further assay is T1, TRPA1 (Homo sapiens, UniProt O75762).
T1 construct: host or cells: HEK293
Kind of assay: TRPA1 antagonist FLIPR assay (functional, HEK293 cell-based). Here is the method: The TRPA1 agonist and antagonist fluorescent imaging plate reader (FLIPR) Assay (functional, HEK293 cell-based) was performed at Eurofins Panlabs, Inc. (St. Charles, MO, USA). The compounds were prepared in assay buffer to the final dilutions 10 and 50 µM. In each experiment, the respective reference compounds were tested: allyl isothiocyanate (the agonist assay) and ruthenium red (the antagonist assay). The […] assays were conducted on a FLIPR^TETRA instrument where the test compounds, vehicle controls, and reference agonists or antagonists were added to the assay plate after a fluorescence baseline was established. The agonist or antagonist incubation during the assay was for a total of 180 s and was used to assess each compound’s ability to activate or inactivate TRPA1. All plates were subjected to appropriate baseline corrections. Once baseline corrections were processed, maximum fluorescence values were exported, and data was manipulated to calculate percentage activation or percentage inhibition. Results showing activity greater than 25% were considered to represent significant effects of test compounds. Experiments were run three times, […].

Data on 4 molecules can be found in publication PMC7312375, “A Novel, Pan-PDE Inhibitor Exerts Anti-Fibrotic Effects in Human Lung Fibroblasts via Inhibition of TGF-β Signaling and Activation of cAMP/PKA Signaling” (International Journal of Molecular Sciences, 2020).

T1 sequence (O75762 whole entry, species assumed): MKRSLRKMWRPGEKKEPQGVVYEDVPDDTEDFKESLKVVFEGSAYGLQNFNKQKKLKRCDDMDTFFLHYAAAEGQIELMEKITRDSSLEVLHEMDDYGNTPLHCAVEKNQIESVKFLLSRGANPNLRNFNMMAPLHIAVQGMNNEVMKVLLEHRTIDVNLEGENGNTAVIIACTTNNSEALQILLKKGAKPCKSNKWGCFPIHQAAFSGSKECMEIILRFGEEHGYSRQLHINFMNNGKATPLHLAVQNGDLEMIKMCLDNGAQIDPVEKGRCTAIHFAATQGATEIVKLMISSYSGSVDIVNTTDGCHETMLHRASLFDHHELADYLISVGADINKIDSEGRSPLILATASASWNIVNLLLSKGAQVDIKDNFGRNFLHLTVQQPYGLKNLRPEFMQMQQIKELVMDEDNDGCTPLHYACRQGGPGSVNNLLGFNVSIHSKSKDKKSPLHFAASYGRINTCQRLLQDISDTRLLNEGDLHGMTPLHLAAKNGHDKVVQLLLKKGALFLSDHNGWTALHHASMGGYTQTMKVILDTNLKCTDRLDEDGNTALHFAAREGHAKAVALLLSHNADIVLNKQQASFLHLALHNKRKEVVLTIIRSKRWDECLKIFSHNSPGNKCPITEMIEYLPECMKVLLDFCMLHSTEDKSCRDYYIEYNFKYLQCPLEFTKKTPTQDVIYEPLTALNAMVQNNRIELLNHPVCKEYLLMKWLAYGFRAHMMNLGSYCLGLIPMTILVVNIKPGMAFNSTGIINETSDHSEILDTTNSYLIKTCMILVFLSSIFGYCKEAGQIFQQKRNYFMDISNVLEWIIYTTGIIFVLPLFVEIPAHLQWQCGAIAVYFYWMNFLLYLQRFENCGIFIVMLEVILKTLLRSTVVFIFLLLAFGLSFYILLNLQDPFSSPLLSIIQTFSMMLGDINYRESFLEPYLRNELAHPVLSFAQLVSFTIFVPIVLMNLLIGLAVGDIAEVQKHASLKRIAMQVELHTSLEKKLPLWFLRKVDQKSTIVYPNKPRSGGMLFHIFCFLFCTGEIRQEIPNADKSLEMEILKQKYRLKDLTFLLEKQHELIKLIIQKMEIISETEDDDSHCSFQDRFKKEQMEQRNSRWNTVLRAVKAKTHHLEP

In the case of `CCCCOc1nc2c(c(=O)n(C)c(=O)n2C)n1CCCC(=O)Nc1cc(C(C)(C)C)ccc1O` [Compound 145, 4-(8-butoxy-1,3-dimethyl-2,6-dioxo-1,2,3,6-tetrahydro-7H-purin-7-yl)-N-(5-(tert-butyl)-2-hydroxyphenyl)butanamide], in assay [1], the “TGF-β1-induced Smad-2 phosphorylation (immunoblot)” value is reported as “reduced”. For the same molecule, the “Protein kinase A activity in TGF-β1-induced fibroblasts” value (“Protein kinase A activity” for short) in assay [2] was “slightly lower”. For the same molecule, the “increase in average Ca2+ response area over baseline” value in the assay on MRC-5 cells (10 µM, acute application) is “four-fold”. For the same molecule, the “Ca2+ responses under TRPA1 inhibition by HC-030031” value in the assay with MRC-5 cells (145 10 µM in the presence of HC-030031 10 µM) is reported as “failed to induce Ca^2+ responses”. Besides, the entries for the “TRPA1 Inhibition (% of control)” value on TRPA1 (10 µM) and at TRPA1 (50 µM) were 12.3 % of control and 4.8 % of control, respectively.

In the case of `CC(C)Cn1c(=O)n(C)c(=O)c2[nH]cnc21` [IBMX, 3-isobutyl-1-methyl-3,7-dihydro-1H-purine-2,6-dione, reference compound], the “TGF-β1-induced Smad-2 phosphorylation (immunoblot)” value in assay [1] is on record as “no differences”. The “Protein kinase A activity” value in assay [2] is listed as “slightly lower”.

Take `Cn1c(=O)c2c(nc(NCc3ccco3)n2CCCC(=O)NN=Cc2ccc(O)cc2O)n(C)c1=O` [Compound 832, N′-(2,4-dihydroxybenzylidene)-4-(8-((furan-2-ylmethyl)amino)-1,3-dimethyl-2,6-dioxo-1,2,3,6-tetrahydro-7H-purin-7-yl)butanehydrazide]: the “TGF-β1-induced Smad-2 phosphorylation (immunoblot)” value in assay [1] was “no differences”. For the same molecule, the “Protein kinase A activity” value in assay [2] is “slightly lower”. The “increase in average Ca2+ response area over baseline” value in the assay on MRC-5 cells (10 µM, acute application) is recorded as “two-fold”. Further, the “TRPA1 Inhibition (% of control)” value on TRPA1 (10 µM) is recorded as 12.4 % of control; at TRPA1 (50 µM) it was 8.8 % of control.

In the case of `COc1nc2c(c(=O)n(C)c(=O)n2C)n1CC(=O)Nc1ccc(C(C)(C)C)cc1` [Compound 869, N-(4-(tert-butyl)phenyl)-2-(8-methoxy-1,3-dimethyl-2,6-dioxo-1,2,3,6-tetrahydro-7H-purin-7-yl)acetamide], the “TGF-β1-induced Smad-2 phosphorylation (immunoblot)” value in assay [1] is on record as “no differences”. In assay [2], the “Protein kinase A activity” value is recorded as “no significant change”. Besides, the “effect on Ca2+ influx in lung fibroblasts” value with MRC-5 cells (10 µM, acute application) is reported as “inhibited Ca^2+ influx”. Moreover, the “TRPA1 Inhibition (% of control)” value at TRPA1 (10 µM) is 74.9 % of control; at TRPA1 (50 µM), 98.7 % of control.
